Results reported in patent publication US6890736B1, “Methods for producing proteins in cultured cells” (Immunex Corporation, priority 2002, dated 2005).

Tests used:
Format in all cases: cell-based, Chinese hamster
[1] = tested on: cell line 25H9 (CHO cells); test: Example 3: cell number (Guava PCA Cytometer); settings: 31° C., 10 μM
Protocol: (§1) About 2×10^6 cells of cell line 25H9 were inoculated into 30 milliliters of serum-free medium and incubated at the temperatures indicated in Table 1 in vented shake flasks. At the times indicated in Table 1, samples were taken from each flask to determine IL-1R-II titer, cell number, and cell viability. IL-1R-II protein titer was determined by ELISA assay. Cell number was determined by counting cells in a hemocytometer. Cell viability was determined by trypan blue staining and counting stained cells in a hemocytometer. Cumulative viable cell density (CVCD) is the area under the curve of a plot of the viable cell density versus time (in units of cells/ml/day). Productivity (pg of IL-1R-II/cell/day) was determined by dividing the protein titer on a particular day by the CVCD on the same day. Cells were fed with amino acids on days 2 and 5, and dextrose was added periodically in order to maintain levels above 2.0 g/L. All samples were done in duplicate, and the data shown is an average value.
The following experiment compares the effects of 5-bromo-2′-deoxycytidine 5′-monophosphate and 5-aza-2′-deoxycytidine on induction of protein production. The experiment was done as described in Example 1 with the following exceptions. All cultures were incubated at 31° C., and cell number and viability were determined using a Guava PCA Cytometer (available from Guava Technologies, Hayward, Calif., USA). Samples were done in triplicate.

[2] = Example 2: cell number and viability; settings: Chinese hamster; for viability at 6 day, 10 μM / viability at 8 day, 10 μM / viability at 0 day, 10 μM / viability at 3 day, 10 μM: 10 μM decitabine; for viability at 6 day, 10 μM / viability at 6 day, 15 μM / viability at 6 day, 20 μM: day 6; for viability at 8 day, 10 μM / viability at 8 day, 15 μM / viability at 8 day, 20 μM: day 8; for viability at 0 day, 15 μM / viability at 3 day, 15 μM / viability at 6 day, 15 μM / viability at 8 day, 15 μM: 15 μM decitabine; for viability at 0 day, 15 μM / viability at 0 day, 20 μM / viability at 0 day, 10 μM: day 0; for viability at 3 day, 15 μM / viability at 3 day, 20 μM / viability at 3 day, 10 μM: day 3; for viability at 0 day, 20 μM / viability at 3 day, 20 μM / viability at 6 day, 20 μM / viability at 8 day, 20 μM: 20 μM decitabine
Protocol: as §1
(§2) To determine an optimum temperature and decitabine concentration, three temperatures (30° C., 31° C., and 32° C.) and three decitabine concentrations (10 μM, 15 μM, and 20 μM) were tested. A 31° C. culture containing 0.5 mM sodium butyrate was grown as a control. […] See e.g. International Application Nos. WO 89/06686 and WO 87/05626. The experiment was performed as in Example 1 except that the inducer concentrations, temperatures, and days at which data was collected are as indicated in Table 2 and FIG. 1.

[3] = tested on: cell line 25H9 (CHO cells); test: Example 2: cell number and viability
Protocol: as §1, §2

[4] = CHO cell line 25H9 producing IL-1R-II, 30° C.
[5] = cell line 25H9 (CHO cells), 30° C.
[6] = cell line 25H9 (CHO cells), 31° C.
[7] = cell line 25H9 (CHO cells), 32° C.
[8] = 30° C., 10 μM decitabine, day 0
[9] = 30° C., 10 μM decitabine, day 3
[10] = 30° C., 10 μM decitabine, day 6
[11] = 30° C., 10 μM decitabine, day 8
[12] = 30° C., 15 μM decitabine, day 0
[13] = 30° C., 15 μM decitabine, day 3
[14] = 30° C., 15 μM decitabine, day 6
[15] = 30° C., 15 μM decitabine, day 8
[16] = 30° C., 20 μM decitabine, day 0
[17] = 30° C., 20 μM decitabine, day 3
[18] = 30° C., 20 μM decitabine, day 6
[19] = 30° C., 20 μM decitabine, day 8
[20] = 31° C., 10 μM decitabine, day 0
[21] = 31° C., 10 μM decitabine, day 3
[22] = 31° C., 10 μM decitabine, day 6
[23] = 31° C., 10 μM decitabine, day 8
[24] = 31° C., 15 μM decitabine, day 0
[25] = 31° C., 15 μM decitabine, day 3
[26] = 31° C., 15 μM decitabine, day 6
[27] = 31° C., 15 μM decitabine, day 8
[28] = 31° C., 20 μM decitabine, day 0
[29] = 31° C., 20 μM decitabine, day 3
[30] = 31° C., 20 μM decitabine, day 6
[31] = 31° C., 20 μM decitabine, day 8
[32] = 32° C., 10 μM decitabine, day 0
[33] = 32° C., 10 μM decitabine, day 3
[34] = 32° C., 10 μM decitabine, day 6
[35] = 32° C., 10 μM decitabine, day 8
[36] = 32° C., 15 μM decitabine, day 0
[37] = 32° C., 15 μM decitabine, day 3
[38] = 32° C., 15 μM decitabine, day 6
[39] = 32° C., 15 μM decitabine, day 8
[40] = 32° C., 20 μM decitabine, day 0
[41] = 32° C., 20 μM decitabine, day 3
[42] = 32° C., 20 μM decitabine, day 6
[43] = 32° C., 20 μM decitabine, day 8

Nc1ncn([C@H]2C[C@H](O)[C@@H](CO)O2)c(=O)n1 [decitabine, 5-aza-2′-deoxycytidine]
Viable Cell Density ([1]; day 0): 2.4 cells/ml × 10^6
Viable Cell Density ([1]; day 2): 2.4 cells/ml × 10^6
Viable Cell Density ([1]; day 5): 1.8 cells/ml × 10^6
Viable Cell Density ([1]; day 7): 1.1 cells/ml × 10^6
Viable Cell Density ([1]; day 9): 0.9 cells/ml × 10^6
viability at 6 day, 10 μM [2, 4]: 70.3%
viability at 8 day, 10 μM [2, 4]: 49%
viability at 0 day, 15 μM [2, 4]: 94.2%
viability at 3 day, 15 μM [2, 4]: 88.9%
viability at 6 day, 15 μM [2, 4]: 85.9%
viability at 8 day, 15 μM [2, 4]: 33.2%
viability at 0 day, 20 μM [2, 4]: 94.2%
viability at 3 day, 20 μM [2, 4]: 93.3%
viability at 6 day, 20 μM [2, 4]: 77%
viability at 8 day, 20 μM [2, 4]: 48.4%
viability at 0 day, 10 μM ([2]; CHO cell line 25H9 producing IL-1R-II, 31° C.): 94.2%
viability at 0 day, 10 μM [2, 5]: 94.2%
viability at 3 day, 10 μM [2, 5]: 91.8%
viability at 3 day, 10 μM [2, 6]: 89.3%
viability at 6 day, 10 μM [2, 6]: 79.6%
viability at 8 day, 10 μM [2, 6]: 63.5%
viability at 0 day, 15 μM [2, 6]: 94.2%
viability at 3 day, 15 μM [2, 6]: 97.6%
viability at 6 day, 15 μM [2, 6]: 78.9%
viability at 8 day, 15 μM [2, 6]: 57.6%
viability at 0 day, 20 μM [2, 6]: 94.2%
viability at 3 day, 20 μM [2, 6]: 87.7%
viability at 6 day, 20 μM [2, 6]: 77.9%
viability at 8 day, 20 μM [2, 6]: 57.2%
viability at 0 day, 10 μM [2, 7]: 94.2%
viability at 3 day, 10 μM [2, 7]: 85.4%
viability at 6 day, 10 μM [2, 7]: 71.7%
viability at 8 day, 10 μM [2, 7]: 42.3%
viability at 0 day, 15 μM [2, 7]: 94.2%
viability at 3 day, 15 μM [2, 7]: 87.6%
viability at 6 day, 15 μM [2, 7]: 65.4%
viability at 8 day, 15 μM [2, 7]: 36.1%
viability at 0 day, 20 μM [2, 7]: 94.2%
viability at 3 day, 20 μM [2, 7]: 89.1%
viability at 6 day, 20 μM [2, 7]: 64.7%
viability at 8 day, 20 μM [2, 7]: 41.1%
Cumulative Viable Cell Density [3, 8]: 0 mL⁻¹ day⁻¹
Viable Cell Density [3, 8]: 2e+06 mL⁻¹
Cumulative Viable Cell Density [3, 9]: 7.4e+06 mL⁻¹ day⁻¹
Viable Cell Density [3, 9]: 3e+06 mL⁻¹
Cumulative Viable Cell Density [3, 10]: 1.43e+07 mL⁻¹ day⁻¹
Viable Cell Density [3, 10]: 1.7e+06 mL⁻¹
Cumulative Viable Cell Density [3, 11]: 1.81e+07 mL⁻¹ day⁻¹
Viable Cell Density [3, 11]: 2.1e+06 mL⁻¹
Cumulative Viable Cell Density [3, 12]: 0 mL⁻¹ day⁻¹
Viable Cell Density [3, 12]: 2e+06 mL⁻¹
Cumulative Viable Cell Density [3, 13]: 6.8e+06 mL⁻¹ day⁻¹
Viable Cell Density [3, 13]: 2.6e+06 mL⁻¹
Cumulative Viable Cell Density [3, 14]: 1.4e+07 mL⁻¹ day⁻¹
Viable Cell Density [3, 14]: 2.2e+06 mL⁻¹
Cumulative Viable Cell Density [3, 15]: 1.81e+07 mL⁻¹ day⁻¹
Viable Cell Density [3, 15]: 1.9e+06 mL⁻¹
Cumulative Viable Cell Density [3, 16]: 0 mL⁻¹ day⁻¹
Viable Cell Density [3, 16]: 2e+06 mL⁻¹
Cumulative Viable Cell Density [3, 17]: 7.9e+06 mL⁻¹ day⁻¹
Viable Cell Density [3, 17]: 3.3e+06 mL⁻¹
Cumulative Viable Cell Density [3, 18]: 1.63e+07 mL⁻¹ day⁻¹
Viable Cell Density [3, 18]: 2.3e+06 mL⁻¹
Cumulative Viable Cell Density [3, 19]: 2.04e+07 mL⁻¹ day⁻¹
Viable Cell Density [3, 19]: 1.8e+06 mL⁻¹
Cumulative Viable Cell Density [3, 20]: 0 mL⁻¹ day⁻¹
Viable Cell Density [3, 20]: 2e+06 mL⁻¹
Cumulative Viable Cell Density [3, 21]: 8.7e+06 mL⁻¹ day⁻¹
Viable Cell Density [3, 21]: 3.9e+06 mL⁻¹
Cumulative Viable Cell Density [3, 22]: 2.1e+07 mL⁻¹ day⁻¹
Viable Cell Density [3, 22]: 4.3e+06 mL⁻¹
Cumulative Viable Cell Density [3, 23]: 2.85e+07 mL⁻¹ day⁻¹
Viable Cell Density [3, 23]: 3.2e+06 mL⁻¹
Cumulative Viable Cell Density [3, 24]: 0 mL⁻¹ day⁻¹
Viable Cell Density [3, 24]: 2e+06 mL⁻¹
Cumulative Viable Cell Density [3, 25]: 7.9e+06 mL⁻¹ day⁻¹
Viable Cell Density [3, 25]: 3.3e+06 mL⁻¹
Cumulative Viable Cell Density [3, 26]: 1.92e+07 mL⁻¹ day⁻¹
Viable Cell Density [3, 26]: 4.2e+06 mL⁻¹
Cumulative Viable Cell Density [3, 27]: 2.58e+07 mL⁻¹ day⁻¹
Viable Cell Density [3, 27]: 2.4e+06 mL⁻¹
Cumulative Viable Cell Density [3, 28]: 0 mL⁻¹ day⁻¹
Viable Cell Density [3, 28]: 2e+06 mL⁻¹
Cumulative Viable Cell Density [3, 29]: 9.2e+06 mL⁻¹ day⁻¹
Viable Cell Density [3, 29]: 4.2e+06 mL⁻¹
Cumulative Viable Cell Density [3, 30]: 2.17e+07 mL⁻¹ day⁻¹
Viable Cell Density [3, 30]: 4.2e+06 mL⁻¹
Cumulative Viable Cell Density [3, 31]: 2.86e+07 mL⁻¹ day⁻¹
Viable Cell Density [3, 31]: 2.7e+06 mL⁻¹
Cumulative Viable Cell Density [3, 32]: 0 mL⁻¹ day⁻¹
Viable Cell Density [3, 32]: 2e+06 mL⁻¹
Cumulative Viable Cell Density [3, 33]: 8e+06 mL⁻¹ day⁻¹
Viable Cell Density [3, 33]: 3.4e+06 mL⁻¹
Cumulative Viable Cell Density [3, 34]: 1.9e+07 mL⁻¹ day⁻¹
Viable Cell Density [3, 34]: 3.9e+06 mL⁻¹
Cumulative Viable Cell Density [3, 35]: 2.49e+07 mL⁻¹ day⁻¹
Viable Cell Density [3, 35]: 2.1e+06 mL⁻¹
Cumulative Viable Cell Density [3, 36]: 0 mL⁻¹ day⁻¹
Viable Cell Density [3, 36]: 2e+06 mL⁻¹
Cumulative Viable Cell Density [3, 37]: 8e+06 mL⁻¹ day⁻¹
Viable Cell Density [3, 37]: 3.4e+06 mL⁻¹
Cumulative Viable Cell Density [3, 38]: 1.82e+07 mL⁻¹ day⁻¹
Viable Cell Density [3, 38]: 3.4e+06 mL⁻¹
Cumulative Viable Cell Density [3, 39]: 2.41e+07 mL⁻¹ day⁻¹
Viable Cell Density [3, 39]: 2.5e+06 mL⁻¹
Cumulative Viable Cell Density [3, 40]: 0 mL⁻¹ day⁻¹
Viable Cell Density [3, 40]: 2e+06 mL⁻¹
Cumulative Viable Cell Density [3, 41]: 8.3e+06 mL⁻¹ day⁻¹
Viable Cell Density [3, 41]: 3.6e+06 mL⁻¹
Cumulative Viable Cell Density [3, 42]: 1.87e+07 mL⁻¹ day⁻¹
Viable Cell Density [3, 42]: 3.3e+06 mL⁻¹
Cumulative Viable Cell Density [3, 43]: 2.36e+07 mL⁻¹ day⁻¹
Viable Cell Density [3, 43]: 1.6e+06 mL⁻¹
